The structures appear in SMILES notation. pIC50, pKi: −log10 of the molar value.

One series in a line: Mouse PK (iv and oral). Type of series: in vivo, male CD-1 mice.
A short description of another series: Monkey PK (iv and oral). It counts as in vivo, cynomolgus monkeys.
For a further series, the target named is IP (Homo sapiens, UniProt P43119). Kind of series: Radioligand binding, human IP ([3H]-iloprost). Also on record: expressed in transfected cells; host or cells: CHO-K1 (crude membranes). The note with it: cloned human receptor; read-out: Ki IP ([3H]-iloprost). The procedure: CHO-K1 cells expressing recombinant IP receptors were harvested, washed with ice-cold phosphate buffered saline, pH 7.4 (PBS), and then centrifuged at 48 000g for 20 min at 4 °C. The resulting cell pellet was then resuspended in ice-cold PBS containing 20 mM HEPES, pH 7.4, and 0.1 mM EDTA, homogenized on ice using a Brinkman Polytron, and centrifuged (48 000g for 20 min at 4 °C). This resuspension and centrifugation process was repeated one further time. Crude membrane pellets were stored at −80 °C until used for radioligand binding assays.
Assay incubations were terminated by rapid filtration through PerkinElmer GF/C filtration plates pretreated with 0.3% PEI, under vacuum pressure using a 96-well Packard filtration apparatus, followed by multiple washes with ice-cold wash buffer (PBS containing 20 mM HEPES and 0.1 mM EDTA, pH 7.4). Plates were then dried at 45 °C for a minimum of 2 h. Finally, 25 μL of BetaScint scintillation cocktail was added to each well and plates were counted in a Packard TopCount scintillation counter. In each competition study, test compounds were dosed at 10 concentrations with triplicate determinations at each test concentration.

The test system of a further series is human platelet. The experiment in a line: Inhibition of ADP-induced human platelet aggregation. It counts as cell-based. The note with it: aggregation induced by 2.5 μM ADP, mean of at least two determinations. How it is done:
Such aggregated and activated platelets produce vasoactive substances such as thromboxane and serotonin that may cause harmful vasoconstriction and vascular remodeling.[13] […] This secondary assay was carried out as previously described,[14] with aggregation induced by 2.5 μM ADP in the presence or absence of IP receptor agonists.

IP, sequence (P43119 whole entry): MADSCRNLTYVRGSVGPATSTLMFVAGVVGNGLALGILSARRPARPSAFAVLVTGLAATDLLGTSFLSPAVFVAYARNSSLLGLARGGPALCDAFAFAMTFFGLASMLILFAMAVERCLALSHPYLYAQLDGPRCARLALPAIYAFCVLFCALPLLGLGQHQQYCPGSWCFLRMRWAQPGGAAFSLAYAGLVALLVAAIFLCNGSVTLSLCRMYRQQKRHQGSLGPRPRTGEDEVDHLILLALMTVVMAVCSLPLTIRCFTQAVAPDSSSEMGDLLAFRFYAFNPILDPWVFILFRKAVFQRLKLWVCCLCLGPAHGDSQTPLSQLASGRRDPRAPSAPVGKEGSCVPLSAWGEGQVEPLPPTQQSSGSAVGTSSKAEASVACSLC

Consider `O=C(O)COC[C@H]1CC[C@H](COC(=O)N(c2ccccc2)c2ccc(Cl)cc2)CC1` [5c, Sodium 2-(((1r,4r)-4-(((4-Chlorophenyl)(phenyl)carbamoyloxy)methyl)cyclohexyl)methoxy)acetate], for which the T1/2 in “Mouse PK (iv and oral)” (iv […]) stood at 5.59 h. In the series “Mouse PK (iv and oral)” (po 9.49 mg/kg), the “AUC0–inf” value was determined as 11.5 µg·h/mL, the Cmax was determined as 4.94 µg/mL, the F was found to be 83.4% and the T1/2 is recorded as 8.08 h. For the same compound, the Tmax in the series “Mouse PK (iv and oral)” (po 9.49 mg/kg) was 15 min. Moreover, the half-life in “Monkey PK (iv and oral)” (cynomolgus monkey, plasma, oral, 0.1 mg/kg, read-out: elimination half-life in monkey (converted)) is 1080 min. In addition, in “Monkey PK (iv and oral)” (monkey, iv 0.1 mg/kg), the “AUC0–inf” value worked out at 0.145 ± 0.095 µg·h/mL, the Clobs turned out to be 0.881 ± 0.579 L h^–1 kg^–1 and the T1/2 is given as 24.2 ± 2.1 h. Further, in the series “Monkey PK (iv and oral)” (monkey, po 0.1 mg/kg), the “AUC0–inf” value worked out at 0.161 ± 0.116 µg·h/mL, the Cmax is 0.0121 ± 0.0036 µg/mL, the F is given as 98.7% and the T1/2 came to 17.5 ± 3.4 h. Further, the Tmax in “Monkey PK (iv and oral)” (monkey, po 0.1 mg/kg) is listed as 2.67 ± 2.89 h. Also, in “Monkey PK (iv and oral)” (monkey, po 0.5 mg/kg), the “AUC0–inf” value is 2.90 ± 1.35 µg·h/mL, the highest concentration (Cmax) came out at 0.0928 ± 0.0297 µg/mL, the F is reported as more than 100% and the T1/2 came to 38.7 ± 21.3 h. For the same compound, the time to peak (Tmax) in the series “Monkey PK (iv and oral)” (monkey, po 0.5 mg/kg) stood at 4.17 ± 3.18 h.
In the case of `O=C(O)COC[C@H]1CC[C@H](COC(=O)N(c2ccccc2)c2cccc(F)c2)CC1` [5g, 2-(((1r,4r)-4-(((3-Fluorophenyl)(phenyl)carbamoyloxy)methyl)cyclohexyl)methoxy)acetic Acid], the pKi at IP was 8.15. Moreover, the negative-log IC50 (pIC50) in the series on human platelet is 7.74.

The values above are taken from PMC11602115 (Journal of Medicinal Chemistry, 2017).
